Read-outs that look alike come from different tables or passages of the source.
Tests used:
[1] = target: Mcl-1 protein (UniProtKB primary accession number: Q07820) (Homo sapiens, UniProt Q07820); assay: Inhibition of Mcl-1 by fluorescence polarisation, Method 1; type: binding; conditions: read-out: IC50 (M) Mcl-1 FP
In short: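 Fluorescence polarisation competition with an 11-point compound dilution series (final DMSO 5%). Mcl-1 protein at 5 nM and fluorescein-labelled ligand at 1 nM (final) in 10 mM HEPES, 150 mM NaCl, 0.05% Tween 20, pH 7.4.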

[2] = system: H929 multiple myeloma tumour line; assay: In vitro cytotoxicity, Microculture Tetrazolium Assay; type: cell-based; conditions: H929 cells, 48 hours exposure, MTT, read-out: IC50 (μM) MTT H929
Protocol: The cytotoxicity studies were carried out on the H929 multiple myeloma tumour line.
The cells are distributed onto microplates and exposed to the test compounds for 48 hours.

[3] = fluorescence polarisation test, Method 2 values are underlined in the patent (underlining not visible here)
[4] = fluorescence polarisation, Method 1, or Method 2

Chain of Mcl-1 protein (Q07820 whole entry): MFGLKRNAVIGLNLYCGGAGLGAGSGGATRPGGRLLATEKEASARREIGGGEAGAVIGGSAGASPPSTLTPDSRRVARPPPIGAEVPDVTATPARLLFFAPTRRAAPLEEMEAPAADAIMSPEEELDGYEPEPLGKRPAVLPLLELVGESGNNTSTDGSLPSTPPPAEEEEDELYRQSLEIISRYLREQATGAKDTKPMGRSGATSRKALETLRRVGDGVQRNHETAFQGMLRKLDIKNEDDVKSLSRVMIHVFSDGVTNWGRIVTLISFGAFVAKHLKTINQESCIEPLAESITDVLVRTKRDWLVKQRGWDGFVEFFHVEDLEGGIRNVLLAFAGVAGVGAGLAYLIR

| Structure (SMILES) | IC50 [1, 3] [M] | IC50 [1, 4] [M] | IC50 ([2]; Homo sapiens, NCI-H929, 48 h) [µM] | IC50 [2] [µM] |
| --- | --- | --- | --- | --- |
| COc1ccccc1CC(Oc1ncnc2sc(-c3ccco3)c(-c3ccc(OCC4CCN(C)C4)c(Cl)c3C)c12)C(=O)O [Example 310, (2R)-2-{[(5Sa)-5-{3-chloro-2-methyl-4-[(1-methylpyrrolidin-3-yl)methoxy]phenyl}-6-(furan-2-yl)thieno[2,3-d]pyrimidin-4-yl]oxy}-3-(2-methoxyphenyl)propanoic acid] | 1.4e-08 | – | 0.26 | – |
| Cc1c(-c2c(-c3ccco3)sc3ncnc(OC(Cc4ccccc4OCc4ccnc(NCc5ccccc5)n4)C(=O)O)c23)ccc(OCCN2CCN(C)CC2)c1Cl [Example 254, (2R)-3-(2-{[2-(benzylamino)pyrimidin-4-yl]methoxy}phenyl)-2-{[(5Sa)-5-{3-chloro-2-methyl-4-[2-(4-methylpiperazin-1-yl)ethoxy]phenyl}-6-(furan-2-yl)thieno[2,3-d]pyrimidin-4-yl]oxy}propanoic acid] | 3.3e-09 | – | 0.044 | – |
| COc1cc(F)ccc1CC(Oc1ncnc2sc(-c3ccc(Cl)o3)c(-c3ccc(OCCN4CCN(C)CC4)c(Cl)c3C)c12)C(=O)O [Example 718, (2R)-2-{[6-(5-chlorofuran-2-yl)-(5Sa)-5-{3-chloro-2-methyl-4-[2-(4-methylpiperazin-1-yl)ethoxy]phenyl}thieno[2,3-d]pyrimidin-4-yl]oxy}-3-(4-fluoro-2-methoxyphenyl)propanoic acid] | – | 1.2e-08 | 0.082 | – |
| Cc1c(-c2c(-c3ccc(F)cc3)sc3ncnc(OC(Cc4ccccc4OCc4ccnc(C(C)(C)C)n4)C(=O)O)c23)ccc(OCCN2CCN(C)CC2)c1Cl [Example 23, (2R)-3-{2-[(2-tert-butylpyrimidin-4-yl)methoxy]phenyl}-2-{[(5Sa)-5-{3-chloro-2-methyl-4-[2-(4-methylpiperazin-1-yl)ethoxy]phenyl}-6-(4-fluorophenyl)thieno[2,3-d]pyrimidin-4-yl]oxy}propanoic acid] | 2.4e-08 | – | 0.054 | – |
| COCCOc1ccccc1CC(Oc1ncnc2sc(-c3ccc(F)cc3)c(-c3ccc(OCCN4CCN(C)CC4)c(Cl)c3C)c12)C(=O)O [Example 104, (2R)-2-{[(5Sa)-5-{3-chloro-2-methyl-4-[2-(4-methylpiperazin-1-yl)ethoxy]phenyl}-6-(4-fluorophenyl)thieno[2,3-d]pyrimidin-4-yl]oxy}-3-[2-(2-methoxyethoxy)phenyl]propanoic acid] | 7.5e-09 | – | 0.386 | – |
| COc1ccccc1C[C@@H](Oc1ncnc2sc(-c3ccc(F)c(Cl)c3F)c(-c3ccc(OCCN4CCN(C)CC4)c(Cl)c3C)c12)C(=O)O [Example 536, (2R)-2-{[6-(3-chloro-2,4-difluorophenyl)-(5Sa)-5-{3-chloro-2-methyl-4-[2-(4-methylpiperazin-1-yl)ethoxy]phenyl}thieno[2,3-d]pyrimidin-4-yl]oxy}-3-(2-methoxyphenyl)propanoic acid] | – | 7.7e-08 | – | 0.797 |
| CCCCn1nccc1COc1ccccc1CC(Oc1ncnc2sc(-c3ccc(F)cc3)c(-c3ccc(OCCN(C)C)c(Cl)c3C)c12)C(=O)O [Example 133, (2R)-3-{2-[(1-butyl-1H-pyrazol-5-yl)methoxy]phenyl}-2-{[(5Sa)-5-{3-chloro-4-[2-(dimethylamino)ethoxy]-2-methylphenyl}-6-(4-fluorophenyl)thieno[2,3-d]pyrimidin-4-yl]oxy}propanoic acid] | 3.4e-09 | – | 0.099 | – |
| Cc1c(-c2c(-c3ccc(F)o3)sc3ncnc(OC(Cc4ccccc4OCc4ccnc(-c5ccsc5)n4)C(=O)O)c23)ccc(OCCN2CCN(C)CC2)c1Cl [Example 173, (2R)-2-{[(5Sa)-5-{3-chloro-2-methyl-4-[2-(4-methylpiperazin-1-yl)ethoxy]phenyl}-6-(5-fluorofuran-2-yl)thieno[2,3-d]pyrimidin-4-yl]oxy}-3-(2-{[2-(thiophen-3-yl)pyrimidin-4-yl]methoxy}phenyl)propanoic acid] | 3.1e-09 | – | 0.004 | – |
| CCCCCn1nccc1COc1ccccc1CC(Oc1ncnc2sc(-c3ccc(F)cc3)c(-c3ccc(OCCN4CCN(C)CC4)c(Cl)c3C)c12)C(=O)O [Example 85, (2R)-2-{[(5Sa)-5-{3-chloro-2-methyl-4-[2-(4-methylpiperazin-1-yl)ethoxy]phenyl}-6-(4-fluorophenyl)thieno[2,3-d]pyrimidin-4-yl]oxy}-3-{2-[(1-pentyl-1H-pyrazol-5-yl)methoxy]phenyl}propanoic acid] | 3.6e-09 | – | 0.063 | – |
| COCCN(C)c1nccc(COc2ccccc2CC(Oc2ncnc3sc(-c4ccc(F)cc4)c(-c4ccc(OCCN5CCN(C)CC5)c(Cl)c4C)c23)C(=O)O)n1 [Example 48, (2R)-2-{[(5Sa)-5-{3-chloro-2-methyl-4-[2-(4-methylpiperazin-1-yl)ethoxy]phenyl}-6-(4-fluorophenyl)thieno[2,3-d]pyrimidin-4-yl]oxy}-3-[2-({2-[(2-methoxyethyl)(methyl)amino]pyrimidin-4-yl}methoxy)phenyl]propanoic acid] | 1.1e-08 | – | 0.122 | – |
| CCCCc1nccc(COc2ccccc2CC(Oc2ncnc3sc(-c4ccc(F)cc4)c(-c4ccc(OCCN5CCN(C)CC5)c(Cl)c4C)c23)C(=O)O)n1 [Example 42, (2R)-3-{2-[(2-butylpyrimidin-4-yl)methoxy]phenyl}-2-{[(5Sa)-5-{3-chloro-2-methyl-4-[2-(4-methylpiperazin-1-yl)ethoxy]phenyl}-6-(4-fluorophenyl)thieno[2,3-d]pyrimidin-4-yl]oxy}propanoic acid] | 3.2e-09 | – | 0.012 | – |

Now from value to molecule, other results behind:

| IC50 [1, 3] [M] | IC50 [1, 4] [M] | Structure (SMILES) | IC50 ([2]; Homo sapiens, NCI-H929, 48 h) [µM] | IC50 [2] [µM] |
| --- | --- | --- | --- | --- |
| – | 7.4e-08 | COc1ccccc1CC(Oc1ncnc2sc(-c3cccc4occc34)c(-c3ccc(OCCN4CCN(C)CC4)c(Cl)c3C)c12)C(=O)O [Example 563, (2R)-2-{[6-(1-benzofuran-4-yl)-(5Sa)-5-{3-chloro-2-methyl-4-[2-(4-methylpiperazin-1-yl)ethoxy]phenyl}thieno[2,3-d]pyrimidin-4-yl]oxy}-3-(2-methoxyphenyl)propanoic acid] | 1.16 | – |
| – | 2.9e-08 | COc1ccccc1CC(Oc1ncnc2sc(-c3ccc(C)o3)c(-c3ccc(OCCN4CCN(C)CC4)c(Cl)c3C)c12)C(=O)O [Example 541, (2R)-2-{[(5Sa)-5-{3-chloro-2-methyl-4-[2-(4-methylpiperazin-1-yl)ethoxy]phenyl}-6-(5-methylfuran-2-yl)thieno[2,3-d]pyrimidin-4-yl]oxy}-3-(2-methoxyphenyl)propanoic acid] | 0.329 | – |
| 5.4e-09 | – | Cc1c(-c2c(-c3ccc(F)o3)sc3ncnc(OC(Cc4ccccc4OCCO)C(=O)O)c23)ccc(OCCN2CCN(C)CC2)c1Cl [Example 193, (2R)-2-{[(5Sa)-5-{3-chloro-2-methyl-4-[2-(4-methylpiperazin-1-yl)ethoxy]phenyl}-6-(5-fluorofuran-2-yl)thieno[2,3-d]pyrimidin-4-yl]oxy}-3-[2-(2-hydroxyethoxy)phenyl]propanoic acid] | 0.116 | – |
| 1.4e-08 | – | Cc1cccc(C[C@@H](Oc2ncnc3sc(-c4ccco4)c(-c4ccc(OCCN5CCN(C)CC5)c(Cl)c4C)c23)C(=O)O)c1 [Example 347, (2R)-2-{[(5Sa)-5-{3-chloro-2-methyl-4-[2-(4-methylpiperazin-1-yl)ethoxy]phenyl}-6-(furan-2-yl)thieno[2,3-d]pyrimidin-4-yl]oxy}-3-(3-methylphenyl)propanoic acid] | – | 0.25 |
| 8.7e-09 | – | Cc1c(-c2c(-c3ccc(Cl)o3)sc3ncnc(OC(Cc4ccccc4OCc4ccncn4)C(=O)O)c23)ccc(OCCN2CCN(C)CC2)c1Cl [Example 370, (2R)-2-{[6-(5-chlorofuran-2-yl)-(5Sa)-5-{3-chloro-2-methyl-4-[2-(4-methylpiperazin-1-yl)ethoxy]phenyl}thieno[2,3-d]pyrimidin-4-yl]oxy}-3-[2-(pyrimidin-4-ylmethoxy)phenyl]propanoic acid] | 0.018 | – |
| 9e-09 | – | Cc1c(-c2c(-c3ccco3)sc3ncnc(OC(Cc4ccccc4OCc4ccc(F)cn4)C(=O)O)c23)ccc(OCCN2CCN(C)CC2)c1Cl [Example 232, (2R)-2-{[(5Sa)-5-{3-chloro-2-methyl-4-[2-(4-methylpiperazin-1-yl)ethoxy]phenyl}-6-(furan-2-yl)thieno[2,3-d]pyrimidin-4-yl]oxy}-3-{2-[(5-fluoropyridin-2-yl)methoxy]phenyl}propanoic acid] | 0.046 | – |
| 5.8e-09 | – | Cc1c(-c2c(-c3ccco3)sc3ncnc(OC(Cc4ccccc4OCc4cccs4)C(=O)O)c23)ccc(OCCN2CCN(C)CC2)c1Cl [Example 245, (2R)-2-{[(5Sa)-5-{3-chloro-2-methyl-4-[2-(4-methylpiperazin-1-yl)ethoxy]phenyl}-6-(furan-2-yl)thieno[2,3-d]pyrimidin-4-yl]oxy}-3-[2-(thiophen-2-ylmethoxy)phenyl]propanoic acid] | 0.099 | – |
| 8.4e-09 | – | Cc1cc(COc2ccccc2CC(Oc2ncnc3sc(-c4ccco4)c(-c4ccc(OCCN5CCN(C)CC5)c(Cl)c4C)c23)C(=O)O)n(C)n1 [Example 225, (2R)-2-{[(5Sa)-5-{3-chloro-2-methyl-4-[2-(4-methylpiperazin-1-yl)ethoxy]phenyl}-6-(furan-2-yl)thieno[2,3-d]pyrimidin-4-yl]oxy}-3-{2-[(1,3-dimethyl-1H-pyrazol-5-yl)methoxy]phenyl}propanoic acid] | 0.105 | – |
| 6.5e-09 | – | Cc1c(-c2c(-c3ccc(F)o3)sc3ncnc(OC(Cc4ccccc4OCc4cocn4)C(=O)O)c23)ccc(OCCN2CCN(C)CC2)c1Cl [Example 191, (2R)-2-{[(5Sa)-5-{3-chloro-2-methyl-4-[2-(4-methylpiperazin-1-yl)ethoxy]phenyl}-6-(5-fluorofuran-2-yl)thieno[2,3-d]pyrimidin-4-yl]oxy}-3-[2-(1,3-oxazol-4-ylmethoxy)phenyl]propanoic acid] | 0.063 | – |

From patent publication US9670227B2, “Thienopyrimidine derivatives, a process for their preparation and pharmaceutical compositions containing them” (LES LABORATOIRES SERVIER, priority 2013, dated 2017)
